Calls of active or inactive are those of the source. No cut-off for these calls is given here.
How the values were obtained:
H9c2 [1] = experiment: Cytotoxicity against rat H9c2 cells assessed as cell viability at 0.001 to 50 uM under normoxia condition by CCK-8 method; assay type: toxicity, cell-based; details: h9c2, 50 µM, dose 0.001-50 µM
H9c2 [2] = experiment: Induction of apoptosis in isoproterenol-induced rat H9c2 cells assessed as early apoptotic cells at 0.1 micromol/L by annexin V-FITC and PI staining based flow cytometry analysis (reference value: 10.37%); assay type: toxicity, cell-based; details: h9c2, 0.1 µM, dose 0.1 µmol/L
H9c2 [3] = experiment: Induction of apoptosis in isoproterenol-induced rat H9c2 cells assessed as late apoptotic cells at 0.1 micromol/L by annexin V-FITC and PI staining based flow cytometry analysis (reference value: 11.49%); assay type: toxicity, cell-based; details: h9c2, 0.1 µM, dose 0.1 µmol/L
H9c2 [4] = experiment: Induction of ATP production in isoproterenol-induced rat H9c2 cells at 0.1 micromol/L by fluorescence based analysis; assay type: functional; details: dose 0.1 µmol/L
H9c2 [5] = experiment: Inhibition of ROS production in isoproterenol-induced rat H9c2 cells assessed as reduction in DCF value at 0.1 uM by DCFH-DA staining based flow cytometry analysis (reference value: 371.9); assay type: functional
H9c2 [6] = experiment: Induction of autophagy in isoproterenol-induced rat H9c2 cells assessed as increase in LC3-I to LC3-II conversion by confocal microscopy based analysis; assay type: functional, cell-based
H9c2 [7] = experiment: Induction of autophagy in isoproterenol-induced rat H9c2 cells assessed as downregulation of PARP1 expression by Western blot analysis; assay type: functional, cell-based
H9c2 [8] = experiment: Induction of autophagy in isoproterenol-induced rat H9c2 cells assessed as downregulation of P62 expression by Western blot analysis; assay type: functional, cell-based
[9] = Toxicity in isoproterenol-induced male C57/6J mouse model assessed as recovery of growth rate at 15 mg/kg, ip pretreated with isoproterenol for 3 days followed by compound addition and measured after 3 days; assay type: organism-based; details: in vivo, 72 h, time 3 day
Mus musculus [10] = experiment: Cardioprotective activity against isoproterenol-induced myocardial injury in C57/6J mouse model assessed as reduction in cardiac swelling size at 15 mg/kg, ip pretreated with isoproterenol for 3 days followed by compound addition and measured after 3 days (reference value: 5.15 millimeter); assay type: functional; details: time 3 day
Mus musculus [11] = experiment: Cardioprotective activity against isoproterenol-induced myocardial injury in C57/6J mouse model assessed as decrease in heart weight ratio at 15 mg/kg, ip pretreated with isoproterenol for 3 days followed by compound addition and measured after 3 days (reference value: 0.56 %); assay type: functional; design: scale not given: the % may be the effect or the level left; details: time 3 day
Mus musculus [12] = experiment: Cardioprotective activity against isoproterenol-induced myocardial injury in C57/6J mouse model assessed as suppression of mTORC1 overexpression at 15 mg/kg, ip pretreated with isoproterenol for 3 days followed by compound addition and measured after 3 days by immunohistochemistry analysis; assay type: functional, organism-based; details: time 3.0 day
Mus musculus [13] = experiment: Cardioprotective activity against isoproterenol-induced myocardial injury in C57/6J mouse model assessed as reduction in CK value in serum at 15 mg/kg, ip pretreated with isoproterenol for 3 days followed by compound addition and measured after 3 days by automatic biochemical analysis; assay type: functional, organism-based; details: time 3.0 day
Mus musculus [14] = experiment: Cardioprotective activity against isoproterenol-induced myocardial injury in C57/6J mouse model assessed as decrease in CK-MB level in serum at 15 mg/kg, ip pretreated with isoproterenol for 3 days followed by compound addition and measured after 3 days by automatic biochemical analysis; assay type: functional, organism-based; details: time 3.0 day
Mus musculus [15] = experiment: Cardioprotective activity against isoproterenol-induced myocardial injury in C57/6J mouse model assessed as effect on cTNI level in serum at 15 mg/kg, ip pretreated with isoproterenol for 3 days followed by compound addition and measured after 3 days by automatic biochemical analysis; assay type: functional, organism-based; details: time 3.0 day
[16] = Permeability of compound in MDCK cells; assay type: ADME, cell-based, Canis lupus familiaris; details: dog, read-out: permeability
[17] = Passive permeability in MDCK cells; assay type: ADME, cell-based, Canis lupus familiaris; details: dog, read-out: permeability

Structure (SMILES)	Activity (H9c2 [1])	Activity (H9c2 [2])	Activity (H9c2 [3])	Activity (H9c2 [4])	Activity (H9c2 [5])	Activity (H9c2 [6])	Activity (H9c2 [7])	Activity (H9c2 [8])	Activity [9]	Activity (Mus musculus [10])	Activity (Mus musculus [11])	Activity (Mus musculus [12])	Activity (Mus musculus [13])	Activity (Mus musculus [14])	Activity (Mus musculus [15])	Papp [16]	Papp [17]
CCC(CC)O[C@@H]1C=C(C(=O)OCCc2ccncc2)C[C@H](N)[C@H]1NC(C)=O	Non-Toxic	–	–	–	–	–	–	–	–	–	–	–	–	–	–	–	–
CCC(CC)O[C@@H]1C=C(C(=O)OCCN(C)C)C[C@H](N)[C@H]1NC(C)=O	Non-Toxic	–	–	–	–	–	–	–	–	–	–	–	–	–	–	–	–
CCOC(=O)C1=C[C@@H](OC(CC)CC)[C@H](NC(C)=O)[C@@H](N)C1 [OSELTAMIVIR]	Non-Toxic	2.78%	8.91%	38.3 nmol/mg	309.1	inactive	Active	Active	Non-Toxic	4.65 mm	0.5%	Active	Active	Active	Active	58 ×10⁻⁶ cm/s	> 20 ×10⁻⁶ cm/s

— ChEMBL document CHEMBL5614434, “A Lysosome-Targeting hNEU1 Inhibitor Treats Myocardial Infarction: A Potential Therapeutic Breakthrough” (J Med Chem, 2024)
